Measurements: article PMC5823688 (Molecular pharmaceutics, 2017)

Legend:
[1] = system: mitochondria of granta-519 tumor cells; test: Cytochrome C release from mitochondria of tumor cells; type: cell-based; conditions: 10 μM peptide; in comparison to a positive 1% Triton X-100 control; Figure S4
SKOV3 cells = conditions: 10 μM polymer, 72 h; FITC-annexin V, flow cytometry
3T3 fibroblasts = conditions: MTS; after 120 h of treatment
[2] = system: caspase 3/7 activity in SKOV3 cells; conditions: 0-10 μM polymer, 72 h
[3] = system: SKOV3 human ovarian cancer cells; conditions: all polymer concentrations (0 to 10 μM), 96 h, MTS

| Substance | cytochrome C release [1] | cells staining positive for annexin V (SKOV3 cells) | BIM-mediated cell death in 3T3 fibroblasts (3T3 fibroblasts) | change in caspase 3/7 activity relative to untreated cultures [2] | cell viability [3] |
| --- | --- | --- | --- | --- | --- |
| FLAhxMRPEI-WIAQELRRIGvDEFNAY [FLAhxBIM] | > 90% |  |  |  |  |
| poly[(DEAEMA)-co-(BMA)]-b-[(PEGMA300)-c-(MaCath-BIM)] [PolCathBIM] |  | 87% | no BIM-mediated cell death was observed |  |  |
| poly[(DEAEMA)-co-(BMA)]-b-[(PEGMA300)-c-(MaCathScrBIM)] [PolCathScrBIM] |  | 15% |  | no change | greater than 90% |
